The target of this experiment is T1, human muscarinic acetylcholine M3 receptor (M3-ACh) (Homo sapiens, UniProt P20309).
T1 construct: expressed in transfected cells; host or cells: CHO-K1 (Chinese Hamster Ovary) cell membranes
The experiment can be described thus: biochemical. The experiment is classed as binding.

[1] abbreviates: pIC50 (M3 Binding IC50 classes).

Like-named read-outs stand apart in the source and are kept apart here.

T1 sequence (P20309 whole entry): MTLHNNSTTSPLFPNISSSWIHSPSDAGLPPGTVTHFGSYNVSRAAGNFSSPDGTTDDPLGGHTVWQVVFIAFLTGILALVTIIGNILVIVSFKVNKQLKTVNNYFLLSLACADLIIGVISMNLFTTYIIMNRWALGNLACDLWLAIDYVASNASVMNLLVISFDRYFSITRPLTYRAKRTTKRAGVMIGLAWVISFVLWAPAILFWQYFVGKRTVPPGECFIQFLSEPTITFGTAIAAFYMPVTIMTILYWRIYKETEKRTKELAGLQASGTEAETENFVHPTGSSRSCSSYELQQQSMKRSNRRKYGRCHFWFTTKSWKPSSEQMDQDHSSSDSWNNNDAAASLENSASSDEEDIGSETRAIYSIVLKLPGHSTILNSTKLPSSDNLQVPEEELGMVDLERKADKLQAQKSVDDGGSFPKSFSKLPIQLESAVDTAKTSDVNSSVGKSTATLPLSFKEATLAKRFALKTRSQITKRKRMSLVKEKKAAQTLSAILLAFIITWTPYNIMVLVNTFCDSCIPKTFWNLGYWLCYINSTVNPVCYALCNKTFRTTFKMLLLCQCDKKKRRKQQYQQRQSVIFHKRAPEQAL

In turn, `CC(C(=O)O[C@H]1C[N+]2(CCc3cccc(F)c3)CCC1CC2)(c1ccccc1)N1CCCCCC1` (single isomer, unassigned) [Example 92] returned an IC50 under setting [1] below 2 nM.
Take `CC(C(=O)O[C@H]1C[N+]2(CC(=O)Nc3ccon3)CCC1CC2)(c1ccccc1)N1CCCCCC1` (single isomer, unassigned) [Example 111]: the IC50 under setting [1] was 2 to 10 nM.
Same read-out and setting: the value for `CC(C(=O)O[C@H]1C[N+]2(CC(=O)Nc3cccc(F)c3)CCC1CC2)(c1cccs1)N1CCSCC1` (single isomer, unassigned) [Example 53] was below 2 nM.
With `CC(C(=O)O[C@H]1C[N+]2(CCc3cccc(Cl)c3)CCC1CC2)(c1ccccc1)N1CCSCC1` (single isomer, unassigned) [Example 99], the IC50 under setting [1] was in the range of 2 to 10 nM.
On to `CN(C(=O)C[N+]12CCC(CC1)[C@@H](OC(=O)C(C)(c1cccs1)N1CCCCC1)C2)c1cccc(F)c1` (single isomer, unassigned) [Example 109], for which the IC50 under setting [1] fell in the range of 2 to 10 nM.
Still for that read-out and setting: the value for `CC(C(=O)O[C@H]1C[N+]2(CCCc3ccccc3)CCC1CC2)(c1ccccc1)N1CCCCCC1` (single isomer, unassigned) [Example 94] was below 2 nM; that for `CC(C(=O)O[C@H]1C[N+]2(CCCOc3ccccc3)CCC1CC2)(c1ccccc1)N1CCSCC1` (single isomer, unassigned) [Example 107] was below 2 nM; that for `C[C@@](C(=O)O[C@H]1C[N+]2(CC[C@@H](O)c3ccccc3)CCC1CC2)(c1ccccc1)N1CCCCC1` [Example 39] was below 2 nM.
Regarding `Cc1ccc(C(=O)C[N+]23CCC(CC2)[C@@H](OC(=O)[C@](C)(c2ccccc2)N2CCCCC2)C3)cc1` [Example 17, (3R)-1-[2-(4-Methylphenyl)-2-oxoethyl]-3-{[(2S)-2-phenyl-2-piperidin-1-ylpropanoyl]oxy}-1-azoniabicyclo[2.2.2]octane bromide], under setting [1], the IC50 is below 2 nM.
Under setting [1], `C[C@@](C(=O)O[C@H]1C[N+]2(CC(=O)c3cccc(Cl)c3)CCC1CC2)(c1ccccc1)N1CCCCC1` [Example 6, (3R)-1-[2-(3-Chlorophenyl)-2-oxoethyl]-3-{[(2S)-2-phenyl-2-piperidin-1-ylpropanoyl]oxy}-1-azoniabicyclo[2.2.2]octane bromide] yielded an IC50 below 2 nM.
Consider `CC1(C)CN(C(C)(C(=O)O[C@H]2C[N+]3(CCCOc4ccccc4)CCC2CC3)c2ccc(Cl)cc2)C1` (single isomer, unassigned) [Example 47], for which, under setting [1], the IC50 was below 2 nM.
Under setting [1], `CCOC(=O)Cc1csc(NC(=O)C[N+]23CCC(CC2)[C@@H](OC(=O)[C@](C)(c2ccccc2)N2CCCCC2)C3)n1` [Example 19, (3R)-1-(2-{[4-(2-Ethoxy-2-oxoethyl)-1,3-thiazol-2-yl]amino}-2-oxoethyl)-3-{[(2S)-2-phenyl-2-piperidin-1-ylpropanoyl]oxy}-1-azoniabicyclo[2.2.2]octane chloride] showed an IC50 of 2 to 10 nM.
Consider `CC(C(=O)O[C@H]1C[N+]2(CC(=O)Nc3cccnn3)CCC1CC2)(c1ccccc1)N1CCSCC1` (single isomer, unassigned) [Example 101], for which, under setting [1], the IC50 is below 2 nM.
Under setting [1], `C[C@@](C(=O)O[C@H]1C[N+]2(CCCS(=O)(=O)c3ccc(C#N)cc3)CCC1CC2)(c1ccccc1)N1CCCCC1` [Example 35, (3R)-1-{3-[(4-Cyanophenyl)sulfonyl]propyl}-3-{[(2S)-2-phenyl-2-piperidin-1-ylpropanoyl]oxy}-1-azoniabicyclo[2.2.2]octane bromide] had an IC50 of 2 to 10 nM.
Take `Cc1cc(OCCC[N+]23CCC(CC2)[C@@H](OC(=O)C(C)(c2cccs2)N2CCCCC2)C3)cc(C)n1` (single isomer, unassigned) [Example 81]: the IC50 under setting [1] lay in the range of 2 to 10 nM.
`C[C@@](C(=O)O[C@H]1C[N+]2(CC[C@H](O)c3ccccc3)CCC1CC2)(c1ccccc1)N1CCCCC1` [Example 38] yielded an IC50 under setting [1] below 2 nM.
Under setting [1], `CC1(C)CN(C(C)(C(=O)O[C@H]2C[N+]3(CCCOc4ccccc4)CCC2CC3)c2ccccc2)C1` (single isomer, unassigned) [Example 48] gave an IC50 of 2 to 10 nM.
Take `Cc1ccc(OCC[N+]23CCC(CC2)[C@@H](OC(=O)C(C)(c2cccs2)N2CCCCC2)C3)c(C)n1` (single isomer, unassigned) [Example 66]: under setting [1], the IC50 lay within 2 to 10 nM.
Compound `CC(C(=O)O[C@H]1C[N+]2(CCc3ccccc3)CCC1CC2)(c1ccccc1)N1CCCCCC1` (single isomer, unassigned) [Example 93] came in with an IC50 under setting [1] below 2 nM.
For the compound `CC(C(=O)O[C@H]1C[N+]2(CC(=O)Nc3ccccc3)CCC1CC2)(c1ccccc1)N1CCCCCC1` (single isomer, unassigned) [Example 89], the IC50 under setting [1] was below 2 nM.
As for `CC(C(=O)O[C@H]1C[N+]2(CCCc3ccccc3)CCC1CC2)(c1ccccc1)N1CCCCCC1` (single isomer, unassigned) [Example 95], the IC50 (read-out: pIC50 (M3 Binding IC50 classes) (converted)) was below 2 nM.
Turning to `CC(C(=O)O[C@H]1C[N+]2(CCCOc3ccccc3)CCC1CC2)(c1cccs1)N1CCSCC1` (single isomer, unassigned) [Example 49], under setting [1], the IC50 was below 2 nM.
Take `CC(C(=O)O[C@H]1C[N+]2(CC(=O)Nc3ccon3)CCC1CC2)(c1ccccc1)N1CCCCCC1` (single isomer, unassigned) [Example 90]: the IC50 is 0.631 nM (pIC50) and below 2 nM under setting [1].
Consider `Cc1nc(-c2ccc(OCC[N+]34CCC(CC3)[C@@H](OC(=O)[C@](C)(c3ccccc3)N3CCCCC3)C4)cc2)no1` [Example 43, (3R)-1-{2-[4-(5-Methyl-1,2,4-oxadiazol-3-yl)phenoxy]ethyl}-3-{[(2S)-2-phenyl-2-piperidin-1-ylpropanoyl]oxy}-1-azoniabicyclo[2.2.2]octane bromide], for which, under setting [1], the IC50 was in the range of 2 to 10 nM.
The compound `C[C@@](C(=O)O[C@H]1C[N+]2(CC(=O)Nc3ccc4[nH]ncc4c3)CCC1CC2)(c1ccccc1)N1CCCCC1` [Example 12, (3R)-1-[2-(1H-Indazol-5-ylamino)-2-oxoethyl]-3-{[(2S)-2-phenyl-2-piperidin-1-ylpropanoyl]oxy}-1-azoniabicyclo[2.2.2]octane chloride] came in with an IC50 under setting [1] of 2 to 10 nM.
`C[C@@](C(=O)O[C@H]1C[N+]2(CC(=O)c3sccc3Cl)CCC1CC2)(c1ccccc1)N1CCCCC1` [Example 4, (3R)-1-[2-(3-Chloro-2-thienyl)-2-oxoethyl]-3-{[(2S)-2-phenyl-2-piperidin-1-ylpropanoyl]oxy}-1-azoniabicyclo[2.2.2]octane bromide] came in with an IC50 under setting [1] of 2 to 10 nM.
Same read-out and setting: in the case of `CC(C(=O)O[C@H]1C[N+]2(CCc3ccccc3)CCC1CC2)(c1ccccc1)N1CCSCC1` (single isomer, unassigned) [Example 103] it was below 2 nM; in that of `CC(C(=O)O[C@H]1C[N+]2(CC(=O)Nc3cccc(F)c3)CCC1CC2)(c1ccccc1)N1CCSCC1` (single isomer, unassigned) [Example 100], below 2 nM; in that of `CC(C(=O)O[C@H]1C[N+]2(CCc3cccc(Cl)c3)CCC1CC2)(c1ccccc1)N1CCOCC1` (single isomer, unassigned) [Example 79], below 2 nM.
As to `CC(C(=O)O[C@H]1C[N+]2(CCOCc3ccc(Cl)cc3)CCC1CC2)(c1ccccc1)N1CCSCC1` (single isomer, unassigned) [Example 108], the IC50 under setting [1] is 2 to 10 nM.
As for `C[C@@](C(=O)O[C@H]1C[N+]2(CC(=O)c3cccc(F)c3)CCC1CC2)(c1ccccc1)N1CCCCC1` [Example 7, (3R)-1-[2-(3-Fluorophenyl)-2-oxoethyl]-3-{[(2S)-2-phenyl-2-piperidin-1-ylpropanoyl]oxy}-1-azoniabicyclo[2.2.2]octane bromide], under setting [1], the IC50 was below 2 nM.
In turn, `CC(C(=O)O[C@H]1C[N+]2(CCc3cccc(F)c3)CCC1CC2)(c1cccs1)N1CCSCC1` (single isomer, unassigned) [Example 51] came in with an IC50 under setting [1] below 2 nM.
Under setting [1], `C[C@@](C(=O)O[C@H]1C[N+]2(CC(=O)c3ccc(F)cc3F)CCC1CC2)(c1ccccc1)N1CCCCC1` [Example 5, (3R)-1-[2-(2,4-Difluorophenyl)-2-oxoethyl]-3-{[(2S)-2-phenyl-2-piperidin-1-ylpropanoyl]oxy}-1-azoniabicyclo[2.2.2]octane chloride] registered an IC50 of 2 to 10 nM.
Consider `CC(C(=O)O[C@H]1C[N+]2(Cc3nc(-c4ccccc4)no3)CCC1CC2)(c1cccs1)N1CCCCC1` (stereo partly drawn) [Example 83], for which the IC50 under setting [1] is below 2 nM.
`CC(C(=O)O[C@H]1C[N+]2(CCCc3ccccc3)CCC1CC2)(c1ccccc1)N1CCSCC1` (single isomer, unassigned) [Example 105] registered an IC50 under setting [1] of 2 to 10 nM.

(Values after patent publication US20100113510A1 (priority 2006, published 2010).)
